Assay results from patent US20020035061A1, “COMPOSITIONS AND METHODS FOR TREATING INFECTIONS USING CATIONIC PEPTIDES ALONE OR IN COMBINATION WITH ANTIBIOTICS” (priority 1996, published 2002).
Values after ≈ are worked out from the molar mass of the structure shown. Read-outs that look alike come from different tables or passages of the source. Peptide text beside a SMILES is read from it.

Experiments:
Assay in all cases: microbe, parasite or virus in culture
Format in all cases: cell-based
[1] = system: microorganisms with acquired resistance; details: for Peptide MIC Alone: Ciprofloxacin section
S. aureus = system: S. aureus
bacterial isolates = details: for FIC: peptide + Ciprofloxacin
[2] = system: inherently resistant microorganisms

CC[C@H](C)[C@H](NC(=O)[C@H](CC(C)C)NC(=O)[C@H](C)NC(=O)[C@@H]1CCCN1C(=O)[C@H](CC(C)C)NC(=O)[C@H](C)NC(=O)[C@@H](NC(=O)[C@@H](NC(=O)[C@@H](NC(=O)[C@@H](NC(=O)[C@H](CCCCN)NC(=O)[C@H](CCCCN)NC(=O)[C@H](CC(C)C)NC(=O)[C@@H](NC(=O)[C@H](CCCCN)NC(=O)[C@@H](NC(=O)[C@H](CC(C)C)NC(=O)[C@H](CC(N)=O)NC(=O)[C@H](CCCCN)NC(=O)[C@@H](NC(=O)[C@H](Cc1ccccc1)NC(=O)[C@H](CO)NC(=O)[C@H](CCCCN)NC(=O)[C@H](Cc1c[nH]c2ccccc12)NC(=O)[C@@H](N)CCCCN)[C@@H](C)CC)[C@@H](C)O)C(C)C)C(C)C)C(C)C)[C@@H](C)O)[C@@H](C)O)C(=O)N[C@@H](CO)C(=O)O [MBI 29A2] (H-KWKSFIKNLTKVLKKVVTTALPALIS-OH; N-terminus and C-terminus assumed)
Ciprofloxacin MIC + Peptide ([1]; P. aeruginosa PA41): 2 µg/mL | Peptide MIC + Ciprofloxacin ([1]; P. aeruginosa PA41): 4 µg/mL | Peptide MIC Alone ([1]; P. aeruginosa PA41): 8 µg/mL | Ciprofloxacin MIC + Peptide ([1]; P. aeruginosa PA77): 1 µg/mL | Peptide MIC + Ciprofloxacin ([1]; P. aeruginosa PA77): 8 µg/mL | Peptide MIC Alone ([1]; P. aeruginosa PA77): 16 µg/mL | Ciprofloxacin MIC + Peptide (S. aureus; S. aureus SA10): 0.5 µg/mL | Peptide MIC + Ciprofloxacin (S. aureus; S. aureus SA10): 2 µg/mL | Ciprofloxacin MIC + Peptide (S. aureus; S. aureus SA25): 0.5 µg/mL | Peptide MIC + Ciprofloxacin (S. aureus; S. aureus SA25): 1 µg/mL | Ciprofloxacin MIC + Peptide (bacterial isolates; P. aeruginosa PA24): 16 µg/mL | Peptide MIC + Ciprofloxacin (bacterial isolates; P. aeruginosa PA24): 8 µg/mL | Ciprofloxacin MIC + Peptide (bacterial isolates; S. aureus SA10): 0.5 µg/mL | Peptide MIC + Ciprofloxacin (bacterial isolates; S. aureus SA10): 2 µg/mL | Ciprofloxacin MIC + Peptide (bacterial isolates; S. aureus SA93): 8 µg/mL | Peptide MIC + Ciprofloxacin (bacterial isolates; S. aureus SA93): 0.5 µg/mL | FIC (bacterial isolates; P. aeruginosa PA24): 0.63 | FIC (bacterial isolates; S. aureus SA10): 0.52 | FIC (bacterial isolates; S. aureus SA93): 0.50

C/C(=C\C(=O)OCCCCCCCCC(=O)O)C[C@@H]1OC[C@H](C[C@@H]2O[C@H]2[C@@H](C)[C@H](C)O)[C@@H](O)[C@H]1O [Mupirocin]
MIC comb. (antibiotic agent) ([1]; E. faecium, with MBI 11CN): 0.1 µg/mL (≈ 0.2 µM) | MIC comb. (antibiotic agent) ([1]; E. faecium, with MBI 11G13CN): 0.1 µg/mL (≈ 0.2 µM) | MIC ([1]; Enterococcus faecium, read-out: MIC alone (antibiotic agent), E. faecium): 100 µg/mL (≈ 200 µM) | MIC comb. (antibiotic agent) ([1]; S. aureus, with MBI 11A1CN): 1 µg/mL (≈ 2 µM) | MIC comb. (antibiotic agent) ([1]; S. aureus, with MBI 11CN): 0.1 µg/mL (≈ 0.2 µM) | MIC comb. (antibiotic agent) ([1]; S. aureus, with MBI 11D18CN): 0.1 µg/mL (≈ 0.2 µM) | MIC comb. (antibiotic agent) ([1]; S. aureus, with MBI 11F1CN): 3 µg/mL (≈ 5.99 µM) | MIC comb. (antibiotic agent) ([1]; S. aureus, with MBI 21A1): 0.1 µg/mL (≈ 0.2 µM) | MIC comb. (antibiotic agent) ([1]; S. aureus, with MBI 21A2): 0.1 µg/mL (≈ 0.2 µM) | MIC comb. (antibiotic agent) ([1]; S. aureus, with MBI 21A10): 0.3 µg/mL (≈ 0.599 µM) | MIC comb. (antibiotic agent) ([1]; S. aureus, with MBI 26): 0.1 µg/mL (≈ 0.2 µM) | MIC comb. (antibiotic agent) ([1]; S. aureus, with MBI 29A3): 0.1 µg/mL (≈ 0.2 µM) | MIC ([1]; Staphylococcus aureus, read-out: MIC alone (antibiotic agent), S. aureus): > 100 µg/mL | MIC (S. aureus; Staphylococcus aureus, S. aureus SBSA4, read-out: Mupirocin MIC Alone): > 100 µg/mL | MIC ([2]; Escherichia coli, read-out: Mupirocin MIC Alone, E. coli): 100 µg/mL (≈ 200 µM) | MIC ([2]; Pseudomonas aeruginosa, read-out: Mupirocin MIC + Peptide, P. aeruginosa, peptide MBI 28): 3 µg/mL | MIC ([2]; Pseudomonas aeruginosa, read-out: Mupirocin MIC + Peptide, P. aeruginosa, peptide MBI 29A3): 0.1 µg/mL | MIC ([2]; Pseudomonas aeruginosa, read-out: Mupirocin MIC Alone, P. aeruginosa): > 100 µg/mL | MIC ([2]; read-out: Mupirocin MIC + Peptide, E. coli, peptide MBI 11B4CN): 3 µg/mL | MIC ([2]; read-out: Mupirocin MIC + Peptide, E. coli, peptide MBI 11D18CN): 1 µg/mL | MIC ([2]; read-out: Mupirocin MIC + Peptide, E. coli, peptide MBI 21A1): 3 µg/mL | MIC ([2]; read-out: Mupirocin MIC + Peptide, E. coli, peptide MBI 26): 3 µg/mL | MIC ([2]; read-out: Mupirocin MIC + Peptide, E. coli, peptide MBI 28): 0.1 µg/mL | MIC (bacterial isolates; Escherichia coli, read-out: Mupirocin MIC Alone, E. coli ECO1): > 100 µg/mL | MIC (bacterial isolates; Escherichia coli, read-out: Mupirocin MIC Alone, E. coli ECO2): 100 µg/mL (≈ 200 µM) | MIC (bacterial isolates; Escherichia coli, read-out: Mupirocin MIC Alone, E. coli ECO3): 100 µg/mL (≈ 200 µM) | MIC (bacterial isolates; Escherichia coli, read-out: Mupirocin MIC Alone, E. coli ECO5): 100 µg/mL (≈ 200 µM) | MIC (bacterial isolates; Escherichia coli, read-out: Mupirocin MIC Alone, E. coli SBECO1): 100 µg/mL (≈ 200 µM) | MIC (bacterial isolates; Escherichia coli, read-out: Mupirocin MIC Alone, E. coli SBECO2): > 100 µg/mL | MIC (bacterial isolates; Pseudomonas aeruginosa, read-out: Mupirocin MIC Alone, P. aeruginosa PA2): > 100 µg/mL | MIC (bacterial isolates; Pseudomonas aeruginosa, read-out: Mupirocin MIC Alone, P. aeruginosa PA3): > 100 µg/mL | MIC (bacterial isolates; Pseudomonas aeruginosa, read-out: Mupirocin MIC Alone, P. aeruginosa PA4): > 100 µg/mL | MIC (bacterial isolates; Pseudomonas aeruginosa, read-out: Mupirocin MIC Alone, P. aeruginosa SBPA1): > 100 µg/mL | MIC (bacterial isolates; Serratia marcescens, read-out: Mupirocin MIC Alone, S. marcescens SBSM1): > 100 µg/mL | MIC (bacterial isolates; Serratia marcescens, read-out: Mupirocin MIC Alone, S. marcescens SBSM2): > 100 µg/mL | MIC (bacterial isolates; Staphylococcus aureus, read-out: Mupirocin MIC Alone, S. aureus SBSA3): 100 µg/mL (≈ 200 µM) | MIC (bacterial isolates; Staphylococcus aureus, read-out: Mupirocin MIC Alone, S. aureus SBSA4): > 100 µg/mL
